Results reported in ChEMBL document CHEMBL5291721, “A preclinical secondary pharmacology resource illuminates target-adverse drug reaction associations of marketed drugs” (Nat Commun, 2023).
One block for each compound: values may come before it.

Key:
[1] = molecular target: Beta-3 adrenergic receptor (Homo sapiens, UniProt P13945)
Substance-P receptor = Substance-P receptor (Homo sapiens, UniProt P25103)
[2] = molecular target: Neurotensin receptor type 1 (Homo sapiens, UniProt P30989)
[3] = molecular target: 5-hydroxytryptamine receptor 2B (Homo sapiens, UniProt P41595)
[4] = molecular target: T1, Alpha-2B adrenergic receptor (Homo sapiens, UniProt P18089)
T1 sequence (P18089 whole entry): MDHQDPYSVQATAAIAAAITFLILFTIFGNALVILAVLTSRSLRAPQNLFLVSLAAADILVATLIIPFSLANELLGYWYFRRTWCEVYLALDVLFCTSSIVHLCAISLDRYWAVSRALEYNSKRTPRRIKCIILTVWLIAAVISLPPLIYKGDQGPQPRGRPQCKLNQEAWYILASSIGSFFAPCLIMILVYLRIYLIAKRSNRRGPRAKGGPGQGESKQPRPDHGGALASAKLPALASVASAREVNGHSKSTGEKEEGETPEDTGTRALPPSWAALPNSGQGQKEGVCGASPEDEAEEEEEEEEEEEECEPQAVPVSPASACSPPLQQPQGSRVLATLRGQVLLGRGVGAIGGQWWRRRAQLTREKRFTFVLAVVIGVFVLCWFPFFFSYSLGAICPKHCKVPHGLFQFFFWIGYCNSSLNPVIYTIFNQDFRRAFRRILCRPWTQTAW

Androgen receptor = molecular target: T2, Androgen receptor (Homo sapiens, UniProt P10275)
T2 sequence (P10275 whole entry): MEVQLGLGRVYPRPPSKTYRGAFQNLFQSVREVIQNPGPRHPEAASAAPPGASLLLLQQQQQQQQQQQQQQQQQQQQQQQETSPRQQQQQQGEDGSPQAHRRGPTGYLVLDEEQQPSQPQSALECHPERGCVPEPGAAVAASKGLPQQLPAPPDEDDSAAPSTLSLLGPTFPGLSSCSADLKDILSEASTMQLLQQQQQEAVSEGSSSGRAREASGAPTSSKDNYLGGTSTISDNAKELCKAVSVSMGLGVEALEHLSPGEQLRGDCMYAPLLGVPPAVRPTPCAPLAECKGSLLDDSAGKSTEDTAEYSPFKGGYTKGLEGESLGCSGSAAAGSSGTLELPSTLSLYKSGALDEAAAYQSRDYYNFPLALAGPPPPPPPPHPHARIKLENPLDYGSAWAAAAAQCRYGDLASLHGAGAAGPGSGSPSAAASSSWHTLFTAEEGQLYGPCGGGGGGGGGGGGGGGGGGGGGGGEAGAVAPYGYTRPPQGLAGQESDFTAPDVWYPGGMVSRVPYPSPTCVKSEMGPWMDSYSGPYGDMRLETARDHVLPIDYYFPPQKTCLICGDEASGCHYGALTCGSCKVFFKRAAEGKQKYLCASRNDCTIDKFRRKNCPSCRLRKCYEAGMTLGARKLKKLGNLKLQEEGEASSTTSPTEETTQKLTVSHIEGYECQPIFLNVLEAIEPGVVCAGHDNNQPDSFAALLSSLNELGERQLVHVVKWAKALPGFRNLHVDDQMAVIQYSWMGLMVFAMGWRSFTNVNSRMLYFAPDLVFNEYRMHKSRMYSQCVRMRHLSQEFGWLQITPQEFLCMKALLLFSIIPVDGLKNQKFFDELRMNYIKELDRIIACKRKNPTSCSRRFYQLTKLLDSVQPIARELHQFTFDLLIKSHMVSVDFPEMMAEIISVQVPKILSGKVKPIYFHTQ

Glucocorticoid receptor [5] = molecular target: T3, Glucocorticoid receptor (Homo sapiens, UniProt P04150); type: functional
T3 sequence (P04150 whole entry): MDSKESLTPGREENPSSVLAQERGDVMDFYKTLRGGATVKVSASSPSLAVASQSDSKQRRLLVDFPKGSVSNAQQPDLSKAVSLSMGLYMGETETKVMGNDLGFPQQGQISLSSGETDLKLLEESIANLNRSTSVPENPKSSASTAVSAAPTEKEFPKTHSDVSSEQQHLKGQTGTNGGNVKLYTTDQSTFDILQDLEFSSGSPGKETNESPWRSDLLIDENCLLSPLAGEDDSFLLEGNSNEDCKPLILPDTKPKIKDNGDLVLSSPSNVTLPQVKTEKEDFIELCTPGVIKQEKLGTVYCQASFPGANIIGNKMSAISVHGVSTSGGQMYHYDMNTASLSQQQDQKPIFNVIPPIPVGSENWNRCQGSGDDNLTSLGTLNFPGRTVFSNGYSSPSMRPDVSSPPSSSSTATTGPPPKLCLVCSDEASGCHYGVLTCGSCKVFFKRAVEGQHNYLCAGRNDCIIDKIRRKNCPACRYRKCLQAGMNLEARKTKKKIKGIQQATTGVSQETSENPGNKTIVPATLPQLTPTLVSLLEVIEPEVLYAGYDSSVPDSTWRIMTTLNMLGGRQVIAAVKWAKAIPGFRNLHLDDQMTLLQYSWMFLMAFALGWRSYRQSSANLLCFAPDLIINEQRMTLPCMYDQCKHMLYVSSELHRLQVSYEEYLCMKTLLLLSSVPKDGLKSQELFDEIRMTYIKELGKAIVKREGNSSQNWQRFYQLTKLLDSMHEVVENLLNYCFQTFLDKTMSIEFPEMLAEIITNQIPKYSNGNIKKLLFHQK

Glucocorticoid receptor [6] = molecular target: T3, Glucocorticoid receptor; type: functional; remark: listed apart in the source
Further: assay procedure not described here.

Chain of Neurotensin receptor type 1 (P30989 whole entry): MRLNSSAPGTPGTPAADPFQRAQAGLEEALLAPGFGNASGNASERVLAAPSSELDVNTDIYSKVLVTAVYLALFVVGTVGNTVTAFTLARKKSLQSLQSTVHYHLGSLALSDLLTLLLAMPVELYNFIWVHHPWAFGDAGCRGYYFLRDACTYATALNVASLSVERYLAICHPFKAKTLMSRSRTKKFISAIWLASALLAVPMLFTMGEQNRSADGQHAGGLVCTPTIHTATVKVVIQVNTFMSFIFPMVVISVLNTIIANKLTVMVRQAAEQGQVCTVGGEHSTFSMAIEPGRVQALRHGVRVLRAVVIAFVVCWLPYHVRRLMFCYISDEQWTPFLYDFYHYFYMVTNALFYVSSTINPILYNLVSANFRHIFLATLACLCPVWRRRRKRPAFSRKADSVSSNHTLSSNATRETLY
Chain of Beta-3 adrenergic receptor (P13945 whole entry): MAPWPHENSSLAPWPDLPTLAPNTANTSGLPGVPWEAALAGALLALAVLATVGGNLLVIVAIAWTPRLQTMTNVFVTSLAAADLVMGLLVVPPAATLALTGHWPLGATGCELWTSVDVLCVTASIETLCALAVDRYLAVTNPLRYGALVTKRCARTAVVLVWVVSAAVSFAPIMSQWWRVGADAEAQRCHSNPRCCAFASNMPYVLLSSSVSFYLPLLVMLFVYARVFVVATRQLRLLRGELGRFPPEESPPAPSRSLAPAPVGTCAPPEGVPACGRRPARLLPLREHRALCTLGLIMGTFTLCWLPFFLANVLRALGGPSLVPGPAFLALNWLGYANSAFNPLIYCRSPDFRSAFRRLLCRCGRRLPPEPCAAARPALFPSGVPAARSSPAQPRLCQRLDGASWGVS
Chain of Substance-P receptor (P25103 whole entry): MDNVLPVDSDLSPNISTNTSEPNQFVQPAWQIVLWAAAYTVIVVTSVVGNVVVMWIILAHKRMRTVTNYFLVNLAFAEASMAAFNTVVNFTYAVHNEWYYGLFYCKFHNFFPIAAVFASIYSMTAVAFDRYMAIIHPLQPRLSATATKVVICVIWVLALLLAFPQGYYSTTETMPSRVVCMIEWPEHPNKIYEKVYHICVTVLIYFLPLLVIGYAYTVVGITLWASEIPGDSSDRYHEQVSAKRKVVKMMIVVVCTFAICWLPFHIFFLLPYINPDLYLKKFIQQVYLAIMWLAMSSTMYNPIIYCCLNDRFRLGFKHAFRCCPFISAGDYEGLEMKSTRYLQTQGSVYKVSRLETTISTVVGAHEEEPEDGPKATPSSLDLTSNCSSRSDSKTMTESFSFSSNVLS
Chain of 5-hydroxytryptamine receptor 2B (P41595 whole entry): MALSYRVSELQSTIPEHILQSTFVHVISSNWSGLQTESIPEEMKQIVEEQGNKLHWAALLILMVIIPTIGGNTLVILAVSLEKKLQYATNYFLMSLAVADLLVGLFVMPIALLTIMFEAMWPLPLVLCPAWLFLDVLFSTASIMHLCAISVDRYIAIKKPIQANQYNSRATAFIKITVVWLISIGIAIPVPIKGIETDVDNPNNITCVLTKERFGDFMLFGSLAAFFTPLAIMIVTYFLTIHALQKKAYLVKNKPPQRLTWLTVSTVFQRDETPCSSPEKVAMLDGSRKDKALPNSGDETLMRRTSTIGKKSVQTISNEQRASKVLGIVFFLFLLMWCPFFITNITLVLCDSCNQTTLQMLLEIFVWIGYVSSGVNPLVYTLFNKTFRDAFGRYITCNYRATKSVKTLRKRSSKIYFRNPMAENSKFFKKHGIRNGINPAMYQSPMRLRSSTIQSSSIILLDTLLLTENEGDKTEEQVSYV

AC50 [1]: > 30 µM
AC50 (Substance-P receptor): > 10 µM
AC50 [2]: > 30 µM
AC50 [3]: > 10 µM
AC50 [4]: 0.292 µM
SMILES: Clc1ccc2nsnc2c1NC1=NCCN1 [TIZANIDINE]

AC50 [4]: 17 µM
SMILES: COc1ccccc1OCC(O)CN1CCN(CC(=O)Nc2c(C)cccc2C)CC1 (centres undefined) [RANOLAZINE]

AC50 [1]: > 30 µM
AC50 (Substance-P receptor): > 10 µM
AC50 [2]: > 30 µM
AC50 [3]: > 10 µM
SMILES: CCOC(=O)[C@H](CCc1ccccc1)N[C@@H](C)C(=O)N1[C@H](C(=O)O)C[C@@H]2CCC[C@@H]21

SMILES: OCCN1C[C@H](O)[C@@H](O)[C@H](O)[C@H]1CO [MIGLITOL]
AC50 (Androgen receptor): > 30 µM

SMILES: CCCCCCOc1nsnc1C1=CCCN(C)C1 [XANOMELINE]
AC50 (Androgen receptor): > 30 µM

SMILES: COCc1c(C(C)C)nc(C(C)C)c(/C=C/[C@@H](O)C[C@@H](O)CC(=O)O)c1-c1ccc(F)cc1 [CERIVASTATIN]
AC50 (Androgen receptor): > 30 µM

SMILES: CS(=O)(=O)c1ccc(C2=C(c3ccccc3)C(=O)OC2)cc1 [ROFECOXIB]
AC50 [1]: > 30 µM
AC50 (Substance-P receptor): > 10 µM
AC50 [2]: > 30 µM
AC50 [3]: > 10 µM

SMILES: CN(C)CC(c1ccc(O)cc1)C1(O)CCCCC1 (centres undefined) [DESVENLAFAXINE]
AC50 (Androgen receptor): > 30 µM

AC50 [1]: > 30 µM
AC50 (Substance-P receptor): > 10 µM
AC50 [2]: > 30 µM
AC50 [3]: > 10 µM
SMILES: C[C@]12CCC(=O)C=C1CC[C@@H]1[C@@H]2[C@@H](O)C[C@@]2(C)[C@H]1CC[C@]2(O)C(=O)CO [HYDROCORTISONE]

SMILES: CN1C(=O)CCS(=O)(=O)C1c1ccc(Cl)cc1 (centres undefined) [CHLORMEZANONE]
AC50 [4]: > 10 µM

SMILES: CN(C)CCn1nnnc1SCC1=C(C(=O)O)N2C(=O)[C@@H](NC(=O)Cc3csc(N)n3)[C@H]2SC1 [CEFOTIAM]
AC50 (Androgen receptor): > 30 µM

SMILES: Cc1cn([C@H]2C[C@H](N=[N+]=[N-])[C@@H](CO)O2)c(=O)[nH]c1=O [ZIDOVUDINE]
AC50 [1]: > 30 µM
AC50 (Substance-P receptor): > 10 µM
AC50 [2]: > 30 µM

SMILES: CN(C)S(=O)(=O)c1ccc2c(c1)N(CCCN1CCC(CCO)CC1)c1ccccc1S2 [PIPOTIAZINE]
AC50 (Androgen receptor): > 30 µM

AC50 [4]: > 30 µM
SMILES: Nc1ccn([C@H]2CC[C@@H](CO)O2)c(=O)n1 [ZALCITABINE]

SMILES: O=C(O[C@H]1C[C@H]2CC[C@@H](C1)[N+]21CCCC1)C(O)(c1ccccc1)c1ccccc1 [TROSPIUM]
AC50 [4]: > 30 µM

SMILES: CC[C@H]1[C@@H](O)[C@@H]2[C@H](CC[C@]3(C)[C@@H]([C@H](C)CCC(=O)O)CC[C@@H]23)[C@@]2(C)CC[C@@H](O)C[C@@H]12 [OBETICHOLIC ACID]
AC50 (Androgen receptor): > 30 µM
AC50 [4]: > 30 µM

AC50 [4]: > 30 µM
SMILES: CC(=O)NCCCS(=O)(=O)O [ACAMPROSATE]

SMILES: CC(C)Nc1ncccn1 [ISAXONINE]
AC50 (Androgen receptor): > 30 µM

AC50 [1]: > 30 µM
AC50 (Substance-P receptor): > 10 µM
AC50 [2]: > 30 µM
SMILES: CC1=C(C(=O)O)N2C(=O)[C@@H](NC(=O)[C@H](N)c3ccccc3)[C@H]2SC1 [CEPHALEXIN ANHYDROUS]

SMILES: C=CCc1ccccc1OCC(O)CNC(C)C (centres undefined) [ALPRENOLOL]
AC50 (Androgen receptor): > 0.3 µM
AC50 [4]: > 30 µM

SMILES: Cc1cn([C@H]2C=C[C@@H](CO)O2)c(=O)[nH]c1=O [STAVUDINE]
AC50 [1]: > 30 µM
AC50 (Substance-P receptor): > 10 µM
AC50 [2]: > 30 µM
AC50 [3]: > 10 µM

SMILES: O=C(Cc1ccc(-c2ccccc2)cc1)Nc1ccccn1 [DIFENPIRAMIDE]
AC50 (Androgen receptor): > 30 µM
AC50 [4]: > 30 µM

SMILES: CCOC(=O)[C@H](CCc1ccccc1)N[C@@H](C)C(=O)N1[C@H](C(=O)O)C[C@H]2CCCC[C@@H]21 [TRANDOLAPRIL]
AC50 (Androgen receptor): > 30 µM

SMILES: CC(=O)Nc1ccc(O)cc1 [ACETAMINOPHEN]
AC50 (Androgen receptor): > 30 µM

SMILES: CC1(C)NC(=O)N(c2ccc([N+](=O)[O-])c(C(F)(F)F)c2)C1=O [NILUTAMIDE]
AC50 [4]: > 30 µM

SMILES: CC[C@H]1OC(=O)[C@H](C)[C@@H](O[C@H]2C[C@@](C)(OC)[C@@H](O)[C@H](C)O2)[C@H](C)[C@@H](O[C@@H]2O[C@H](C)C[C@H](N(C)C)[C@H]2O)[C@](C)(O)C[C@@H](C)CN(C)[C@H](C)[C@@H](O)[C@]1(C)O [AZITHROMYCIN]
AC50 [1]: > 30 µM
AC50 (Substance-P receptor): > 10 µM
AC50 [2]: > 30 µM
AC50 [3]: > 10 µM

AC50 (Glucocorticoid receptor [5]): > 10 µM
AC50 (Glucocorticoid receptor [6]): > 10 µM
AC50 [4]: > 30 µM
SMILES: CNC(=O)c1ccccc1Sc1ccc2c(/C=C/c3ccccn3)n[nH]c2c1 [AXITINIB]

AC50 [4]: > 30 µM
SMILES: CCCCN1C[C@H](O)[C@@H](O)[C@H](O)[C@H]1CO

AC50 [4]: > 10 µM
SMILES: NS(=O)(=O)Cc1noc2ccccc12 [ZONISAMIDE]

SMILES: CCC1=C(C)CN(C(=O)NCCc2ccc(S(=O)(=O)NC(=O)N[C@H]3CC[C@H](C)CC3)cc2)C1=O [GLIMEPIRIDE]
AC50 (Glucocorticoid receptor [5]): > 30 µM
AC50 (Glucocorticoid receptor [6]): > 30 µM
AC50 (Androgen receptor): > 30 µM

AC50 [4]: 8.9 µM
SMILES: COc1cc2nc(N(C)CCCNC(=O)C3CCCO3)nc(N)c2cc1OC (centres undefined) [ALFUZOSIN]

AC50 [4]: > 30 µM
SMILES: Nc1nc(NC2CC2)c2ncn([C@H]3C=C[C@@H](CO)C3)c2n1 [ABACAVIR]

SMILES: CCC(=O)NCC[C@@H]1CCc2ccc3c(c21)CCO3 [RAMELTEON]
AC50 (Androgen receptor): > 30 µM

SMILES: CN(C)[C@@H](c1cccc(O)c1)[C@H]1CCCC[C@H]1O [CIRAMADOL]
AC50 (Androgen receptor): > 30 µM

SMILES: O=C(O)c1cc(O)ccc1O [GENTISIC ACID]
AC50 (Androgen receptor): > 30 µM

AC50 [3]: > 10 µM
AC50 [4]: > 10 µM
SMILES: CN1C(C(=O)Nc2ccccn2)=C(O)c2sc(Cl)cc2S1(=O)=O [LORNOXICAM]

SMILES: Cc1cc(C#N)cc(C)c1Oc1nc(Nc2ccc(C#N)cc2)nc(N)c1Br [ETRAVIRINE]
AC50 (Androgen receptor): > 30 µM

SMILES: CC[N+]1(C)[C@@H]2CC(OC(=O)[C@H](CO)c3ccccc3)C[C@H]1[C@@H]1O[C@@H]12 (some centres undefined) [OXITROPIUM]
AC50 (Androgen receptor): > 30 µM

AC50 [1]: > 30 µM
AC50 (Substance-P receptor): 1.54 µM
AC50 [2]: > 30 µM
AC50 [3]: > 10 µM
SMILES: CCC(C)n1ncn(-c2ccc(N3CCN(c4ccc(OCC5COC(Cn6cncn6)(c6ccc(Cl)cc6Cl)O5)cc4)CC3)cc2)c1=O (centres undefined) [ITRACONAZOLE]

SMILES: CO[C@H]1C[C@@H]2CC[C@@H](C)[C@@](O)(O2)C(=O)C(=O)N2CCCC[C@H]2C(=O)O[C@H]([C@H](C)C[C@@H]2CC[C@@H](O)[C@H](OC)C2)CC(=O)[C@H](C)/C=C(\C)[C@@H](O)[C@@H](OC)C(=O)[C@H](C)C[C@H](C)/C=C/C=C/C=C/1C [SIROLIMUS]
AC50 [1]: 23.8 µM
AC50 [2]: > 30 µM
AC50 (Androgen receptor): > 30 µM

AC50 [1]: > 30 µM
AC50 (Substance-P receptor): > 10 µM
AC50 [2]: > 30 µM
AC50 [3]: 4.06 µM
SMILES: CN(C)CCC(c1ccc(Cl)cc1)c1ccccn1 (centres undefined) [CHLORPHENIRAMINE]

AC50 [1]: 5.2 µM
AC50 (Substance-P receptor): > 10 µM
AC50 [2]: > 30 µM
AC50 [3]: > 10 µM
SMILES: Cc1ccc(-c2cc(C(F)(F)F)nn2-c2ccc(S(N)(=O)=O)cc2)cc1 [CELECOXIB]
